Assay results reported in US7462625B2, “Gonadotropin-releasing hormone receptor antagonists and methods relating thereto” (Neurocrine Biosciences, Inc., priority 2000, dated 2008).

What follows are compounds tested against T1, GnRH receptor (Homo sapiens, UniProt P30968) (assay: GnRH receptor membrane binding assay). Details: not given.
T1 construct: expressed in transfected cells
T1 sequence (P30968 1-328): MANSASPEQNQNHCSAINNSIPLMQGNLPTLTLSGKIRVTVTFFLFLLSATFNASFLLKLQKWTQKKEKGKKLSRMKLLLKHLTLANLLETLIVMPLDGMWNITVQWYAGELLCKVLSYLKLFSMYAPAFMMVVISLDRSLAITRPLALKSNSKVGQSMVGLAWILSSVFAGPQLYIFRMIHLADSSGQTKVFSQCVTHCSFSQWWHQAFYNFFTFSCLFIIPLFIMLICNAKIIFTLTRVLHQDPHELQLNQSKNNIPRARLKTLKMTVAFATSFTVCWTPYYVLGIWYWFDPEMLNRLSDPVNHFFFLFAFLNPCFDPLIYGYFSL
Procedure: Radio-Iodination of GnRH Peptide
The GnRH analog is labeled by the chloramine-T method. […] The reaction is stopped by the addition of 60 μg sodium metabisulfite and the free iodine is removed by passing the iodinated mixture through a C-8 Sep-Pak cartridge (Millipore Corp., Milford, Mass.). The peptide is eluted with a small volume of 80% acetonitrile/water. […] The purified radioactive peptide is stored in 0.1% BSA/20% acetonitrile/0.1% TFA at −80° C. and can be used for up to 4 weeks.
GnRH Receptor Membrane Binding Assay
Cells stably, or transiently, transfected with GnRH receptor expression vectors are harvested, resuspended in 5% sucrose and homogenized using a polytron homogenizer (2×15 sec). Nucleii are removed by centrifugation (3000×g for 5 min.), and the supernatant centrifuged (20,000×g for 30 min, 4° C.) to collect the membrane fraction. The final membrane preparation is resuspended in binding buffer (10 mM Hepes (pH 7.5), 150 mM NaCl, and 0.1% BSA) and stored at −70° C. Binding reactions are performed in a Millipore MultiScreen 96-well filtration plate assembly with polyethylenimine coated GF/C membranes. […] The reaction is terminated after 90 minutes by application of vacuum and washing (2×) with phosphate buffered saline. Bound radioactivity is measured using 96-well scintillation counting (Packard Topcount) or by removing the filters from the plate and direct gamma counting. Ki values are calculated from competition binding data using non-linear least squares regression using the Prism software package (GraphPad Software).

Ki, < 100 nM:
Cc1cccc(-c2c(C)n(Cc3c(F)cccc3F)c(=O)n(C[C@H](N)c3ccccc3)c2=O)c1F [8-17]

Same assay, conditions: GnRH receptor membrane binding assay, [125I]-labeled GnRH peptide; read-out: Ki

Ki, < 100 nM:
CCN(CC)CCN(C)CCn1c(=O)c(-c2ccc3c(c2)OCO3)c(C)n(Cc2c(F)cccc2F)c1=O [9-249], COc1cccc(-c2c(C)n(Cc3c(F)cccc3F)c(=O)n(CC(C)NCc3cc(C)c(C)o3)c2=O)c1F (stereo not drawn) [9-595], COc1cccc(-c2c(C)n(Cc3c(F)cccc3F)c(=O)n(CC(C)NCc3cccs3)c2=O)c1F (stereo not drawn) [9-621], CCCN(CCC)[C@@H](C)Cn1c(=O)c(-c2cccc(OC)c2F)c(C)n(Cc2c(F)cccc2F)c1=O [9-681], COc1cccc(-c2c(C)n(Cc3c(F)cccc3F)c(=O)n(C[C@@H](C)NC(C)C(C)C)c2=O)c1F (stereo partly drawn) [9-613], Cc1c(-c2ccc(Oc3ccccc3)cc2)c(=O)n(CCN(Cc2ccccc2)Cc2ccccc2)c(=O)n1Cc1c(F)cccc1F [9-39], COc1cccc(-c2c(C)n(Cc3c(F)cccc3F)c(=O)n(C[C@@H](C)NCc3ccco3)c2=O)c1F [9-652], COc1cccc(-c2c(C)n(Cc3c(F)cccc3F)c(=O)n(C(C)CNCc3ccccn3)c2=O)c1 (stereo not drawn) [9-402], Cc1c(-c2ccc(C(C)C)cc2)c(=O)n(CCN2CCN(c3cccc(Cl)c3)CC2)c(=O)n1Cc1c(F)cccc1F [9-85], Cc1c(-c2ccc(Oc3ccccc3)cc2)c(=O)n(CCN2CCN(Cc3ccc4c(c3)OCO4)CC2)c(=O)n1Cc1c(F)cccc1F [9-35], Cc1c(-c2ccc3c(c2)OCCO3)c(=O)n(CCN2CCN(Cc3ccc4c(c3)OCO4)CC2)c(=O)n1Cc1c(F)cccc1F [9-95], Cc1c(-c2ccc3c(c2)OCO3)c(=O)n(CCN(C)CCc2ccccn2)c(=O)n1Cc1c(F)cccc1F [3-1], Cc1c(-c2ccc(Oc3ccccc3)cc2)c(=O)n(CCN2CCN(c3cccc(Cl)c3)CC2)c(=O)n1Cc1c(F)cccc1F [9-40], COc1cccc(-c2c(C)n(Cc3c(F)cccc3F)c(=O)n(CCN(C)Cc3ccccn3)c2=O)c1 [1-3], COc1cccc(-c2c(C)n(Cc3c(F)cccc3F)c(=O)n(CC(C)NCCCOCC(C)C)c2=O)c1 (stereo not drawn) [9-19], COc1ccccc1CNC[C@@H](C)n1c(=O)c(-c2cccc(C)c2F)c(C)n(Cc2c(F)cccc2F)c1=O [9-634], Cc1c(-c2ccc(Oc3ccccc3)cc2)c(=O)n(CCN2CCCC(C(N)=O)C2)c(=O)n1Cc1c(F)cccc1F (stereo not drawn) [9-37], Cc1c(-c2ccc(Oc3ccccc3)cc2)c(=O)n(CCN[C@@H](C)c2ccc3ccccc3c2)c(=O)n1Cc1c(F)cccc1F [9-219], Cc1cc(-c2c(C)n(Cc3c(F)cccc3F)c(=O)n(C[C@H](N)c3ccccc3)c2=O)ccc1F [8-44], Cc1c(-c2ccc(Oc3ccccc3)cc2)c(=O)n(CCNCc2cccc([N+](=O)[O-])c2)c(=O)n1Cc1c(F)cccc1F [9-142], Cc1c(-c2csc(-c3ccccc3)n2)c(=O)n(C[C@H](N)c2ccccc2)c(=O)n1Cc1c(F)cccc1F [12-4], Cc1c(-c2ccc(Oc3ccccc3)cc2)c(=O)n(CCNCCC(c2ccccc2)c2ccccc2)c(=O)n1Cc1c(F)cccc1F [9-140], Cc1ccc(-c2c(C)n(Cc3c(F)cccc3F)c(=O)n(C[C@H](N)c3ccccc3)c2=O)s1 [8-106], COc1cccc(-c2c(C)n(Cc3c(F)cccc3F)c(=O)n(CC(C)NCC3CCCCC3)c2=O)c1F (stereo not drawn) [9-589], COc1cccc(-c2c(C)n(Cc3c(F)cccc3F)c(=O)n(C[C@H](C)NCc3ccccc3)c2=O)c1F [9-304], Cc1ccc(Nc2nc(-c3c(C)n(Cc4c(F)cccc4F)c(=O)n(C[C@H](N)c4ccccc4)c3=O)cs2)cc1 [12-32], COc1cccc(-c2c(C)n(Cc3c(F)cccc3F)c(=O)n([C@H](C)CNCc3ccccc3C)c2=O)c1F [9-653], Cc1c(-c2ccc3c(c2)OCCO3)c(=O)n(CCNCC(F)(F)F)c(=O)n1Cc1c(F)cccc1F [9-191], COc1cccc(-c2c(C)n(Cc3c(F)cccc3F)c(=O)n(C[C@H](Cc3ccccc3)N(C)C)c2=O)c1F [9-443], COc1cccc(-c2c(C)n(Cc3c(F)cccc3F)c(=O)n(C[C@@H](C)N(C)CCc3ccccn3)c2=O)c1 [9-318], CCCN(CCn1c(=O)c(-c2ccc(C(C)C)cc2)c(C)n(Cc2c(F)cccc2F)c1=O)C(C)CC (stereo not drawn) [9-86], Cc1c(-c2ccc(Cl)s2)c(=O)n(C[C@H](N)c2ccccc2)c(=O)n1Cc1c(F)cccc1F [8-75], COc1cccc(-c2c(C)n(Cc3c(F)cccc3F)c(=O)n(C[C@H](CC(C)C)N(C)C)c2=O)c1F [9-704], Cc1c(-c2ccc(Oc3ccccc3)cc2)c(=O)n(CCNCc2ccc(F)cc2C(F)(F)F)c(=O)n1Cc1c(F)cccc1F [9-145], Cc1c(-c2ccccc2F)c(=O)n(CCN(C)CCc2ccccn2)c(=O)n1Cc1c(F)cccc1F [6-1], COc1cccc(-c2c(C)n(Cc3c(F)cccc3F)c(=O)n(CCN(C)CCc3cccc(Cl)n3)c2=O)c1 [1-11], Cc1cccnc1CCN1CCCC1Cn1c(=O)cc(C)n(Cc2c(F)cccc2F)c1=O (stereo not drawn) [9-415], Cc1c(-c2ccc3c(c2)OCCO3)c(=O)n(CCN(CCC#N)Cc2cccnc2)c(=O)n1Cc1c(F)cccc1F [9-200], Cc1c(/C=C/c2ccccc2)c(=O)n(CCN(C)CCc2ccccn2)c(=O)n1Cc1c(F)cccc1F [9-287], COc1cccc(-c2c(C)n(Cc3c(F)cccc3F)c(=O)n([C@H](C)CNCc3ccccc3F)c2=O)c1 [9-446], Cc1c(-c2cccs2)c(=O)n(C[C@H](N)c2ccccc2)c(=O)n1Cc1c(F)cccc1F [8-107], CCCCN(CCCC)[C@H](C)Cn1c(=O)c(-c2cccc(OC)c2F)c(C)n(Cc2c(F)cccc2F)c1=O [9-612], Cc1c(-c2ccc(Oc3cccc(Cl)c3)cc2)c(=O)n(C[C@H](N)c2ccccc2)c(=O)n1Cc1c(F)cccc1F [8-70], CN[C@H](CC(C)C)Cn1c(=O)c(-c2cccc(OC)c2F)cn(Cc2c(F)cccc2F)c1=O [13-4], Cc1c(-c2csc(-c3ccc(F)cc3)n2)c(=O)n(C[C@H](N)c2ccccc2)c(=O)n1Cc1c(F)cccc1F [12-24], COc1cccc(-c2c(C)n(Cc3c(F)cccc3F)c(=O)n(CCN3CC4CC3CO4)c2=O)c1 (stereo not drawn) [7-10], CCN(CC)CCn1c(=O)c(-c2ccc(Oc3ccccc3)cc2)c(C)n(Cc2c(F)cccc2F)c1=O [9-224], COc1ccc(-c2c(C)n(Cc3c(F)cccc3F)c(=O)n(C[C@H](N)c3ccccc3)c2=O)cc1 [8-100], Cc1c(-c2ccc(NC(=O)OCC(C)C)cc2)c(=O)n(CCN(C)CCc2ccccn2)c(=O)n1Cc1c(F)cccc1F [6-8], Cc1c(-c2ccc(Oc3ccccc3)cc2)c(=O)n(CCN2CCN(c3ccccc3)CC2)c(=O)n1Cc1c(F)cccc1F [9-146], CCc1c(-c2cccc(OC)c2F)c(=O)n(C[C@H](N)c2ccccc2)c(=O)n1Cc1c(F)cccc1F [15-1], CCC(CC(C)C)N[C@@H](C)Cn1c(=O)c(-c2cccc(OC)c2F)c(C)n(Cc2c(F)cccc2F)c1=O (stereo partly drawn) [9-688], COc1cccc(-c2c(C)n(Cc3c(F)cccc3F)c(=O)n(C[C@H](N)C(C)C)c2=O)c1F [8-25]
